“Also recorded” adds a separate entry of the source.
Assays:
[1] = human, in vivo; cited from earlier work
[2] = in vivo; cited from earlier work
[3] = cited from earlier work
[4] = cited from earlier work; remark: listed apart in the source
copper-albumin = copper-albumin (Homo sapiens, UniProt P02768); settings: in vitro
breast cancer cells = assay: Human breast cancer xenograft growth in athymic nude mice; assay type: in vivo
Method: FIG. 5. […] 10^6 breast cancer cells were injected in the mammary fat pad of 4 groups of athymic, nude mice (5 mice per group). Control mice received no treatment.
In this study, 10^6 breast cancer cells were injected in the mammary fat pad of 4 groups of athymic, nude mice (5 mice per group). Control mice received no treatment.

[5] = therapeutic dose 1,000-2,000 mg/day

Sequence of copper-albumin (P02768 25-609): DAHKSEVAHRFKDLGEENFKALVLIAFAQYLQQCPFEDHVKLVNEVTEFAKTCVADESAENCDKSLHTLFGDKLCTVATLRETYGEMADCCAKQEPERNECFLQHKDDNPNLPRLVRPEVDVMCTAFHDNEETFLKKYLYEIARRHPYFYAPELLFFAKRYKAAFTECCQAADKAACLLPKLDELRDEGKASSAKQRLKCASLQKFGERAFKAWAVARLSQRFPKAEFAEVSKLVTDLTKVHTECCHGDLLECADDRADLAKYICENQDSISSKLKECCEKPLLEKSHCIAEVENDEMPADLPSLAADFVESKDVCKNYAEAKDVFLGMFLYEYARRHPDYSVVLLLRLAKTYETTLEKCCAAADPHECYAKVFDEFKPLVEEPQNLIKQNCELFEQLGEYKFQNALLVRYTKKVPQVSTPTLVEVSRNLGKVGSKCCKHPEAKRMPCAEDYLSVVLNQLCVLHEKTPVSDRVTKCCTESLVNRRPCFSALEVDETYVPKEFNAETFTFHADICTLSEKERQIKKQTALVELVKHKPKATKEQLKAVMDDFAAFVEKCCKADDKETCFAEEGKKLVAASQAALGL

Q: For NC(=O)c1nnn(Cc2cc(Cl)c(C(=O)c3ccc(Cl)cc3)c(Cl)c2)c1N [CAI, carboxyamidotriazole], which “disease stabilization in cancer patients having progressive disease before treatment” value [1] is on record?
A: 49%

Q: With CC(C)(S)[C@@H](N)C(=O)O [penicillamine] as the compound, how does the initial hypersensitivity syndrome [2] read?
A: about a quarter to a third of patients

Q: For NCCNCCNCCN [trientine], which patients with proteinuria ([3]; after several weeks of use) is on record?
A: about 20%

Q: And the “cupruresis after the first few weeks of therapy” value [3, 5]?
A: 2 to 3 mg

Q: And the initial cupruresis [3, 5]?
A: 4 to 5 mg

Q: With CC(=O)[O-].CC(=O)[O-].[Zn+2] [zinc, zinc acetate] as the compound, how does the toxicity ([4]; 150 mg daily, 200 Wilson's disease patients) read?
A: no toxicity at all

Q: And the copper balance induced ([4]; at the two week point)?
A: −0.35 mg daily

Q: And the “time to bring urine copper and nonceruloplasmin plasma copper to subtoxic levels” value ([4]; in vivo)?
A: as long as six months

Q: What about the “time to intestinal metallothionein induction and negative copper balance” value ([4]; in vivo) of the same compound?
A: approximately two weeks

Q: What does the source list for “tetrapropylammonium tetrathiomolybdate [TP-TM]”?
A: copper-albumin-TM tripartite binding (copper-albumin): show the standard copper-albumin-TM tripartite binding; tumor growth curves versus control animals (breast cancer cells; TM 1 mg/day, TP-TM 1 mg/day and 1.5 mg/day, p<0.01 vs control): effectively inhibiting tumor growth; TP-TM tumor growth inhibition compared with TM (breast cancer cells; TP-TM 1 and 1.5 mg/day vs AmmTM 1 mg/day): indistinguishable from that of AmmTM; also recorded: at least as effective as TM; also recorded: statistically indistinguishable from the TM curves

— patent US7888389B2 (The Regents of the University of Michigan, priority 2002, dated 2011)
